# Columns and labels:
# [1] = system: SK-MEL-5; experiment: panel of 60 human tumor cell lines, growth inhibition (Melanoma); conditions: Homo sapiens; for GI50: SK-MEL-5; for CC50: SK-MEL-5, read-out: LC50; for IC (TGI): SK-MEL-5, read-out: TGI
# [2] = system: CAKI-1; experiment: panel of 60 human tumor cell lines, growth inhibition (Renal Cancer); conditions: Homo sapiens; for GI50: CAKI-1; for CC50: CAKI-1, read-out: LC50; for IC (TGI): CAKI-1, read-out: TGI
# [3] = system: OVCAR-3; experiment: panel of 60 human tumor cell lines, growth inhibition (Ovarian Cancer); conditions: for GI50 / CC50 / IC (TGI): Homo sapiens; for GI50 / Percent Growth: OVCAR-3; for CC50: OVCAR-3, read-out: LC50; for IC (TGI): OVCAR-3, read-out: TGI
# [4] = system: HCT-116; experiment: panel of 60 human tumor cell lines, growth inhibition (Colon Cancer); conditions: Homo sapiens; for CC50: HCT-116, read-out: LC50; for IC (TGI): HCT-116, read-out: TGI
# [5] = system: SK-MEL-2; experiment: panel of 60 human tumor cell lines, growth inhibition (Melanoma); conditions: Homo sapiens; for GI50: SK-MEL-2; for CC50: SK-MEL-2, read-out: LC50; for IC (TGI): SK-MEL-2, read-out: TGI
# [6] = system: MOLT-4; experiment: panel of 60 human tumor cell lines, growth inhibition (Leukemia); conditions: Homo sapiens; for GI50: MOLT-4; for CC50: MOLT-4, read-out: LC50; for IC (TGI): MOLT-4, read-out: TGI
# [7] = system: SNB-75; experiment: panel of 60 human tumor cell lines, growth inhibition (CNS Cancer); conditions: Homo sapiens; for GI50: SNB-75; for CC50: SNB-75, read-out: LC50; for IC (TGI): SNB-75, read-out: TGI
# [8] = system: NCI/ADR-RES; experiment: panel of 60 human tumor cell lines, growth inhibition (Ovarian Cancer); conditions: Homo sapiens; for CC50: read-out: LC50; for IC (TGI): read-out: TGI
# [9] = system: T-47D; experiment: panel of 60 human tumor cell lines, growth inhibition (Breast Cancer); conditions: Homo sapiens, T47D; for CC50: read-out: LC50; for IC (TGI): read-out: TGI
# [10] = system: MCF7; experiment: as above; conditions: Homo sapiens; for CC50: MCF7, read-out: LC50; for IC (TGI): MCF7, read-out: TGI
# [11] = system: LOX IMVI; experiment: panel of 60 human tumor cell lines, growth inhibition (Melanoma); conditions: Homo sapiens; for CC50: read-out: LC50; for IC (TGI): read-out: TGI
# [12] = system: UO-31; experiment: panel of 60 human tumor cell lines, growth inhibition (Renal Cancer); conditions: Homo sapiens; for GI50: UO-31; for CC50: UO-31, read-out: LC50; for IC (TGI): UO-31, read-out: TGI
# [13] = system: A549/ATCC; experiment: panel of 60 human tumor cell lines, growth inhibition (Non-Small Cell Lung Cancer); conditions: Homo sapiens; for GI50: A549; for CC50: A549, read-out: LC50; for IC (TGI): A549, read-out: TGI
# [14] = system: SN12C; experiment: panel of 60 human tumor cell lines, growth inhibition (Renal Cancer); conditions: Homo sapiens; for CC50: read-out: LC50; for IC (TGI): read-out: TGI
# [15] = system: SK-MEL-28; experiment: panel of 60 human tumor cell lines, growth inhibition (Melanoma); conditions: Homo sapiens; for GI50: SK-MEL-28; for CC50: SK-MEL-28, read-out: LC50; for IC (TGI): SK-MEL-28, read-out: TGI
# [16] = system: MDA-MB-231/ATCC; experiment: panel of 60 human tumor cell lines, growth inhibition (Breast Cancer); conditions: Homo sapiens; for GI50: MDA-MB-231; for CC50: MDA-MB-231, read-out: LC50; for IC (TGI): MDA-MB-231, read-out: TGI
# [17] = system: SW-620; experiment: panel of 60 human tumor cell lines, growth inhibition (Colon Cancer); conditions: Homo sapiens; for CC50: SW-620, read-out: LC50; for IC (TGI): SW-620, read-out: TGI
# [18] = system: M14; experiment: panel of 60 human tumor cell lines, growth inhibition (Melanoma); conditions: Homo sapiens; for GI50: M14; for CC50: M14, read-out: LC50; for IC (TGI): M14, read-out: TGI
# [19] = system: PC-3; experiment: panel of 60 human tumor cell lines, growth inhibition (Prostate Cancer); conditions: Homo sapiens; for GI50: PC-3; for CC50: PC-3, read-out: LC50; for IC (TGI): PC-3, read-out: TGI
smiles,measurement,setting,value
"C=C1C(=O)O[C@H]2[C@H]1CC/C(COC(=O)NCCN1CCCC1)=C\CC[C@@]1(C)O[C@@H]21 [JVM 59, ((1aR,7aS,10aS,10bS,E)-1a-methyl-8-methylene-9-oxo-1a,2,3,6,7,7a,8,9,10a,10b-decahydrooxireno[2′,3′:9,10]cyclodeca[1,2-b]furan-5-yl)methyl-(2-(pyrrolidin-1-yl)ethyl)carbamate]",GI50,[1],15.5 µM
same,CC50,[1],55.1 µM
same,IC (TGI),[1],29.2 µM
same,GI50,[2],6.86 µM
same,CC50,[2],51.8 µM
same,IC (TGI),[2],21.2 µM
same,GI50,[3],8.41 µM
same,CC50,[3],46.4 µM
same,IC (TGI),[3],20.8 µM
same,Percent Growth,[3]; Log10 Concentration −4.0,−98%
same,Percent Growth,[3]; Log10 Concentration −5.0,46%
same,Percent Growth,[3]; Log10 Concentration −6.0,102%
same,Percent Growth,[3]; Log10 Concentration −7.0,100%
same,Percent Growth,[3]; Log10 Concentration −8.0,101%
same,GI50,"[4]; HCT-116, HCT-116, five dose",3.18 µM
same,GI50,"[4]; HCT-116, HCT-116, 5-dose assay",3.18 µM
same,CC50,[4],38.2 µM
same,IC (TGI),[4],12.7 µM
same,GI50,[5],14 µM
same,CC50,[5],62.4 µM
same,IC (TGI),[5],29.5 µM
same,GI50,[6],3.48 µM
same,CC50,[6],89.7 µM
same,IC (TGI),[6],17.5 µM
same,GI50,[7],18 µM
same,CC50,[7],> 100 µM
same,IC (TGI),[7],79.3 µM
same,GI50,[8],> 100 µM
same,CC50,[8],> 100 µM
same,IC (TGI),[8],> 100 µM
same,GI50,[9],4.86 µM
same,CC50,[9],63.8 µM
same,IC (TGI),[9],19.2 µM
same,GI50,"[10]; MCF7, MCF7, five dose",3.91 µM
same,GI50,"[10]; MCF7, MCF7, 5-dose assay",3.91 µM
same,CC50,[10],63.7 µM
same,IC (TGI),[10],17.1 µM
same,GI50,[11]; 5-dose assay,7.88 µM
same,GI50,[11]; five dose,7.88 µM
same,CC50,[11],60.6 µM
same,IC (TGI),[11],23.4 µM
same,GI50,[12],13.4 µM
same,CC50,[12],75.3 µM
same,IC (TGI),[12],31.8 µM
same,GI50,[13],27.6 µM
same,CC50,[13],> 100 µM
same,IC (TGI),[13],96.5 µM
same,GI50,[14],17.7 µM
same,CC50,[14],85.5 µM
same,IC (TGI),[14],39 µM
same,GI50,[15],12.3 µM
same,CC50,[15],52 µM
same,IC (TGI),[15],25.3 µM
same,GI50,[16],15.2 µM
same,CC50,[16],61.6 µM
same,IC (TGI),[16],30.6 µM
same,GI50,"[17]; SW-620, SW-620, five dose",3.46 µM
same,GI50,"[17]; SW-620, SW-620, 5-dose assay",3.46 µM
same,CC50,[17],47.2 µM
same,IC (TGI),[17],13.8 µM
same,GI50,[18],9.65 µM
same,CC50,[18],58.1 µM
same,IC (TGI),[18],24 µM
same,GI50,[19],15.7 µM
same,CC50,[19],70.1 µM
same,IC (TGI),[19],33.2 µM
C=C1C(=O)O[C@H]2[C@H]1CC/C(COC(=O)OC)=C\CC[C@@]1(C)O[C@@H]21 [JVM 2-40],GI50,[1],7.58 µM
same,CC50,[1],50.6 µM
same,IC (TGI),[1],21.5 µM
same,GI50,[2],2.79 µM
same,CC50,[2],38.8 µM
same,IC (TGI),[2],15 µM
same,GI50,[3],2.63 µM
same,CC50,[3],30.6 µM
same,IC (TGI),[3],9.31 µM
same,Percent Growth,[3]; Log10 Concentration −4.0,−100%
same,Percent Growth,[3]; Log10 Concentration −5.0,−3%
same,Percent Growth,[3]; Log10 Concentration −6.0,88%
same,Percent Growth,[3]; Log10 Concentration −7.0,100%
same,Percent Growth,[3]; Log10 Concentration −8.0,99%
same,GI50,"[4]; HCT-116, HCT-116, NCI five dose",2.24 µM
same,CC50,[4],33.2 µM
same,IC (TGI),[4],11 µM
same,GI50,[5],10.6 µM
same,CC50,[5],59.5 µM
same,IC (TGI),[5],25.1 µM
same,GI50,[6],4.05 µM
same,CC50,[6],> 100 µM
same,IC (TGI),[6],21.7 µM
same,GI50,[7],2.69 µM
same,CC50,[7],42.5 µM
same,IC (TGI),[7],17.9 µM
same,GI50,[8],17.2 µM
same,CC50,[8],> 100 µM
same,IC (TGI),[8],49.2 µM
same,GI50,[9],2.7 µM
same,CC50,[9],61.3 µM
same,IC (TGI),[9],12.5 µM
same,GI50,"[10]; MCF7, MCF7, NCI five dose",2.28 µM
same,CC50,[10],49.8 µM
same,IC (TGI),[10],12.2 µM
same,GI50,[11]; NCI five dose,3.4 µM
same,CC50,[11],43.3 µM
same,IC (TGI),[11],13.1 µM
same,GI50,[12],3.21 µM
same,CC50,[12],42.1 µM
same,IC (TGI),[12],14.2 µM
same,GI50,[13],13.3 µM
same,CC50,[13],61.3 µM
same,IC (TGI),[13],28.6 µM
same,GI50,[14],6.31 µM
same,CC50,[14],64.4 µM
same,IC (TGI),[14],22.6 µM
same,GI50,[15],3.59 µM
same,CC50,[15],44.8 µM
same,IC (TGI),[15],16 µM
same,GI50,[16],3.54 µM
same,CC50,[16],46.7 µM
same,IC (TGI),[16],16.6 µM
same,GI50,"[17]; SW-620, SW-620, NCI five dose",2.39 µM
same,CC50,[17],47.4 µM
same,IC (TGI),[17],11.9 µM
same,GI50,[18],2.91 µM
same,CC50,[18],42.2 µM
same,IC (TGI),[18],14.1 µM
same,GI50,[19],12 µM
same,CC50,[19],59.4 µM
same,IC (TGI),[19],26.7 µM

# Source: US9469650B2, “Melampomagnolide B derivatives” (BOARD OF TRUSTEES OF THE UNIVERSITY OF ARKANSAS, priority 2013, dated 2016)
